In experiment [1] the test system is MOLM-14 F691L (endogenous FLT3 ITD and transfected FLT3 F691L). As to the kind of experiment: MOLM-14 F691L cell proliferation assay (CellTiter-Glo). Particulars: Homo sapiens, MOLM-14, 72 h; 3 d growth, GMean. The class given is cell-based. Put shortly:
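Three-day proliferation at 37 °C/5% CO2 of FLT3-ITD MOLM-14 lines with D835Y or F691L mutation, seeded 1×10^4 per well. Compounds at eight points, top 1 μM final, 0.2% DMSO. ATP luminescence (CellTiter-Glo) gives IC50.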

Another experiment deals with T1, FLT3-D835Y (Homo sapiens, UniProt P36888, D835Y).
T1 construct: purchased Invitrogen PV3967
T1 sequence (P36888 27-993 D835Y): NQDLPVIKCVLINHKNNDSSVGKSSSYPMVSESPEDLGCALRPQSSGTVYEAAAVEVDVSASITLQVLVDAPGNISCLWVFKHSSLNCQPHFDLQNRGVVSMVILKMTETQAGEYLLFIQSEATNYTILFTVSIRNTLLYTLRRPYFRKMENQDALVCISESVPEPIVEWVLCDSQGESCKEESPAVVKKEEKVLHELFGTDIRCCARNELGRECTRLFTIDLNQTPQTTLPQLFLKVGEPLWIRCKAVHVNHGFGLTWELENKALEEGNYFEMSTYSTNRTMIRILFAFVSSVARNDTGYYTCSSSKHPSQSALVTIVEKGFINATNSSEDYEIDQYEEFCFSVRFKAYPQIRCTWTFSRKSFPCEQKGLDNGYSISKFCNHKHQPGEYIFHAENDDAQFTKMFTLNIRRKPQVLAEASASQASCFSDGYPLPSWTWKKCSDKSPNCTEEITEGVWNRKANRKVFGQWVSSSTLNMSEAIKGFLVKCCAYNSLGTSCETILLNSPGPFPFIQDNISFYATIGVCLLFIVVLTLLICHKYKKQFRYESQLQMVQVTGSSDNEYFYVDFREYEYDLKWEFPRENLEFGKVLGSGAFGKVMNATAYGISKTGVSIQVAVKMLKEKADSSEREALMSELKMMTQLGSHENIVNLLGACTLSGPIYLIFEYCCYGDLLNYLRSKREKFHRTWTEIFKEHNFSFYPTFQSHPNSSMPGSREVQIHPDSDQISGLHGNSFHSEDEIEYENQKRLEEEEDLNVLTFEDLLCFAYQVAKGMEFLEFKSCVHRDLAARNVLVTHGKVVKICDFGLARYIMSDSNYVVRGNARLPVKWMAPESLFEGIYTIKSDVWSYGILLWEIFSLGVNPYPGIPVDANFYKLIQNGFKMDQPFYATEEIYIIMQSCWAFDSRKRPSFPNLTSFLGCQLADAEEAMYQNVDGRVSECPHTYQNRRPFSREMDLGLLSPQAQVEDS
As to the kind of experiment: FLT3-D835Y recombinant enzyme kinase assay (AlphaScreen). It is filed as biochemical. The note with it: 8 pt, GMean. In outline:
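Recombinant enzyme phosphorylated biotinylated poly(Glu4-Tyr) peptide (30 nM final) with ATP at 10 μM for FLT3-ITD and FLT3-D835Y or 100 μM for c-KIT. Phosphopeptide was detected by AlphaScreen with streptavidin donor and anti-phosphotyrosine (PY20) acceptor beads (10 μg/mL), read at 580 nm, for IC50 determination.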
(In general: In Alpha technology, singlet oxygen from a donor bead excites a nearby acceptor bead.)

For the compound `CCn1cc(Nc2ncc(-c3ccc(CC(=O)Nc4cc(C(F)(F)F)ccn4)c(F)c3)cn2)cn1` [Compound P-0255, 2-[4-[2-[(1-ethylpyrazol-4-yl)amino]pyrimidin-5-yl]-2-fluoro-phenyl]-N-[4-(trifluoromethyl)-2-pyridyl]acetamide], the half-inhibitory concentration (IC50) (in experiment [1]; on FLT3-D835Y) was 0.0001 to 10 µM throughout.
With `Cn1cc(Nc2ncc(-c3ccc(CC(=O)Nc4cncc(C(F)(F)F)c4)cc3F)cn2)cn1` [Compound P-0205, 2-[3-fluoro-4-[2-[(1-methylpyrazol-4-yl)amino]pyrimidin-5-yl]phenyl]-N-[5-(trifluoromethyl)-3-pyridyl]acetamide], the half-inhibitory concentration (IC50) (in experiment [1]; at FLT3-D835Y) was 0.0001 to 10 µM each time.
As to `COc1ncc(NC(=O)Cc2ccc(-c3cnc4[nH]c(C#CC(C)(C)O)cc4c3)cc2)cc1C(F)(F)F` [Compound P-0214, 2-(4-(2-(3-hydroxy-3-methylbut-1-yn-1-yl)-1H-pyrrolo[2,3-b]pyridin-5-yl)phenyl)-N-(6-methoxy-5-(trifluoromethyl)pyridin-3-yl)acetamide], the 50% inhibitory concentration (IC50) (in experiment [1]; at FLT3-D835Y) was 0.0001 to 10 µM in each case.
Consider `Cc1ncc(NC(=O)Cc2ccc(-c3cnc(Nc4cnn(C5CC5)c4)nc3)cc2F)cc1C(F)(F)F` [Compound P-0239, 2-[4-[2-[(1-cyclopropylpyrazol-4-yl)amino]pyrimidin-5-yl]-2-fluoro-phenyl]-N-[6-methyl-5-(trifluoromethyl)-3-pyridyl]acetamide], for which the IC50 (in experiment [1]; at FLT3-D835Y) was 0.0001 to 10 µM throughout.
Regarding `COc1ncc(NC(=O)Cc2ccc(-c3cnc(Nc4cnn(C(F)F)c4)nc3)cc2)cc1C(F)(F)F` [Compound P-0211, 2-[4-[2-[[1-(difluoromethyl)pyrazol-4-yl]amino]pyrimidin-5-yl]phenyl]-N-[6-methoxy-5-(trifluoromethyl)-3-pyridyl]acetamide], the half-inhibitory concentration (IC50) (in experiment [1]; on FLT3-D835Y) was 0.0001 to 10 µM throughout.
With `CCn1cc(Nc2ncc(-c3ccc(CC(=O)Nc4ccc(C(F)(F)F)nc4)cc3)cn2)cn1` [Compound P-0252, 2-[4-[2-[(1-ethylpyrazol-4-yl)amino]pyrimidin-5-yl]phenyl]-N-[6-(trifluoromethyl)-3-pyridyl]acetamide], the IC50 (in experiment [1]; on FLT3-D835Y) was 0.0001 to 10 µM each time.
For `COCCn1cc(Nc2ncc(-c3ccc(CC(=O)Nc4cnc(Cl)c(C(F)(F)F)c4)c(F)c3)cn2)cn1` [Compound P-0266, N-[6-chloro-5-(trifluoromethyl)-3-pyridyl]-2-[2-fluoro-4-[2-[[1-(2-methoxyethyl)pyrazol-4-yl]amino]pyrimidin-5-yl]phenyl]acetamide], the concentration for half-maximal inhibition (IC50) (in experiment [1]; at FLT3-D835Y) was 0.0001 to 10 µM in each case.

Broadly, the IC50 is the midpoint of a concentration-inhibition curve.

Values taken from patent US10160747B2, “Compounds and methods for kinase modulation, and indications therefor” (Plexxikon Inc., priority 2016, dated 2018).
